Laboratory results reported in publication PMC9967700, “Metabolism-Guided Optimization of Tryptophanol-Derived Isoindolinone p53 Activators” (Pharmaceuticals, 2023).
Where two headings read alike, the source gives them in different places.

Tests used:
HCT116 p53−/− cells = assay: Antiproliferative activity, sulforhodamine B (SRB) assay; format: cell-based, human; settings: 48 h treatment, mean ± SEM of 3–5 independent experiments, read-out: HCT116 p53−/− GI50
Protocol: Tumor cells were cultured in RPMI-1640 with UltraGlutamine (Lonza, VWR), supplemented with 10% fetal bovine serum (FBS; Gibco, Alfagene) and maintained in a humidified incubator at 37 °C with 5% CO2. Cell lines were seeded in 96-well plates at the cells/well density of 5.0 × 10^3.

[1] = target: T1, wt p53 core domain (DNA Binding Domain; p53DBD; residues 94–312) (Homo sapiens, UniProt P04637); assay: Differential scanning fluorimetry (DSF) thermostability; settings: 13d 2.5 mM, MQ 2 mM; for Tm of the wt p53DBD: 5% DMSO, mean ± SD, three assays
T1 construct: residues 94–312; host or cells: E. coli BL21 (DE3)-[pLys-S]
T1 sequence (P04637 94-312): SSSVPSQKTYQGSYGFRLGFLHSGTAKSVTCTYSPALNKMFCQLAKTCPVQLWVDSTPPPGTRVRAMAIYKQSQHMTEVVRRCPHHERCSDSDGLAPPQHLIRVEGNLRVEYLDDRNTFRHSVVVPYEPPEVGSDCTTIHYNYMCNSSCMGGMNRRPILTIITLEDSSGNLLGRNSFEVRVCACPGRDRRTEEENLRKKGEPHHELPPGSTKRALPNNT
Protocol: Expression of wt p53 core domain. The wt p53DBD was expressed in E. coli BL21 (DE3)-[pLys-S] in fusion with an N-terminal 21-residue tag containing the hexa-histidyl peptide (His6) and the thrombin recognition sequence, using the pET15b-based expression construct.
For protein expression 10 mL of an overnight (ON) culture was used to inoculate 1 L of LB medium supplemented with 1 mL of ampicillin 100 mg/mL and 1mL of zinc sulphate 100 mM. Culture medium was incubated at 37 °C, 140 rpm till an OD600nm of ~0.5. Protein expression was then induced by adding 0.5 mL of isopropyl β-D-1-thiogalactopyranoside (IPTG) 1M (Cfinal = 0.5 mM) and bacterial growth at 27 °C, 120 rpm ON. E. coli cells were pelleted by centrifugation for 10 min, 4000 rpm, at 4 °C. The cellular pellet was resuspended in 10 mL of Lysis buffer (Sodium phosphate 50 mM; NaCl 300 mM; glycerol 10%, pH 7.4) supplemented with 1mg/mL Lysozyme (Biochemica Applichem Panreac), 1 mM of phenylmethanesulfonyl fluoride (PMSF) (Merck), 5 µg of DNAse I (Panreac applichem) and 0.8% of Triton X-100 (Merck). After a first step of chemical lysis (30 min incubation, at 4 °C), cells were further disrupted by four cycles of sonication, at 4 °C, during 60 s at 50% duty free cycle on a Vibra Cell (Media Cibernetics). The lysate was subsequently cleared by centrifugation at 10,000 rpm, 40 min, at 4 °C and the supernatant containing the soluble proteins were collected.
Purification of human wt p53DBD and His6-tag removal. Immobilized Metal Affinity Chromatography (IMAC) was performed to purify the wt p53DBD using a nickel-nitrilotriacetic acid (Ni-NTA) agarose resin (QIAGEN). Briefly, 1 mL of Ni^2+ resin was pre-equilibrated using MilliQ water (3 × 1 mL) and Lysis buffer containing 10 mM imidazole (3 × 1 mL). The soluble fraction of cellular lysate was supplemented with 6.8 µL of β-mercaptoethanol and 33.2 µL of imidazole 3 M to obtain the final concentrations of […] and 10 mM, respectively. The lysate was added to the pre-equilibrated resin and protein binding was performed by incubation on an orbital shaker for one hour at 4 °C. The suspension was added to a 9 cm polypropylene conical column (Poly-Prep columns; BioRad) and protein purification was performed by gravity flow with an imidazole gradient consisting of three washing steps (2 × 5 mL of Lysis buffer, 20 mM imidazole; 2 × 5 mL of Lysis buffer, 50 mM imidazole; and 1 × 2.5 mL Lysis buffer, 75 mM imidazole) and an elution step with 5 × 500 µL of Lysis buffer, 250 mM imidazole. Protein eluted fractions were assessed by SDS-PAGE and Coomassie staining. Size exclusion chromatography was performed on the pooled protein eluted fractions, using an AKTA prime plus system (GE Healthcare) equipped with a UV detector (280 nm), a HiLoad 16/60, Superdex 200 prep grade column (GE Healthcare) and SEC buffer (25 mM potassium phosphate buffer, 150 mM NaCl, pH 7.5). The fractions corresponding to the wt p53DBD monomers were collected and treated with thrombin (8 units of thrombin/mg wt p53DBD). The thrombin cleavage was conducted for 18 h at rt at pH 7.4 in the assay buffer recommended by the supplier. Before and after digestion protein concentration was determined through Bradford method.
Thermostability of wt p53DBD core domain assessed by differential scanning fluorimetry (DSF). An amount of 5 μg of thrombin-cleaved wt p53DBD was incubated with testing compounds (2.5 mM) in 25 mM potassium phosphate buffer and 150 mM NaCl, pH 7.5 in a final volume of 50 µL containing 2 µL of 1 mM DTT or 1 mM TCEP to promote p53 core domain redox control, and Sypro Orange at 2.5x final concentration. The fluorescence was assessed on a C1000 Touch thermal cycler equipped with a CFX96 optical reaction module (BioRad) and the FRET channel (λexc 450–490 nm and λem 560–580 nm). Temperature was ramped from 20 to 90 °C with a rate of 0.2 °C/12 sec. The Tm values were calculated using Origin 8 Software. […]

[2] = Human liver microsomes incubations: half-life and intrinsic clearance; format: in vitro ADME
Protocol: For the generation of Phase I metabolites: tested compounds, at a 10 μM concentration (1 μL of 5 mM DMSO stock solution), were incubated with HLM (1 mg protein/mL), Vivid® regenerating system (5 μL) and NADPH (1mM) in ABIC 50 mM buffer pH 7.4, for a total incubation volume of 500 μL. Incubations were run in duplicate, at 37 °C. Aliquots were collected at 0, 5, 10, 20, 30, 40, 50, 60, 75, 90, 120, 180 min and reactions were stopped by adding and ice-cold solution of reserpine (2.5 μM) in acetonitrile. Additional aliquots were taken at 0 and 120 min and subsequently treated with L-lysine (100 µM) and sodium cyanoborohydride (10 µM) or glutathione (100 µM). Following centrifugation (10,000 rpm, 15 min, RT), the clear supernatants were collected and analyzed LC-ESI-HRMS/MS. Control incubations were conducted in the same conditions: (1) using DMSO as negative control, in absence of the test drug; (2) using heat-denatured HLM (90 °C, 15 min); (3) using nevirapine, as a positive control, instead of the tested compound; and (4) in absence of NADPH co-factor.
The in vitro depletion half-lives of tested compounds t1/2 were calculated using Equation (1), assuming that testing compounds follow a first-order kinetic trend. The “slope” was determined from linear fitting of the natural logarithm of the concentration of drug remaining plotted against time:(1) t1/2=ln2/slope
The intrinsic clearance in HLM (CLint, HLM) was calculated using Equation (2):(2) CLint HLM =ln2/ t1/2 x mL incubation/mg microsomes x 45 mg microsomes/g liver x 26 g liver/Kg b.w.

CCCn1c(Br)c(C[C@H]2CO[C@]3(c4ccccc4)c4ccccc4C(=O)N23)c2ccccc21 [Compound 13d, (3S, 9bR)-3-((2-bromo-1-propyl-1H-indol-3-yl)methyl)-9b-phenyl-2,3-dihydrooxazolo[2,3-a]isoindol-5(9bH)-one]
GI50 (HCT116 p53−/− cells): 7.45 ± 0.95 µM | GI50 (HCT116 p53−/− cells; Homo sapiens, HCT-116, 48 h): 7.5 µM | ΔTm of the wt p53DBD ([1]; DTT 1 mM): did not increase the wt p53DBD Tm | Tm of the wt p53DBD ([1]; DTT (1 mM)): 40.51 ± 0.09 °C | ΔTm at 2500 µM ([1]; TCEP 1 mM): 10.4 °C | ΔTm of the wt p53DBD ([1]; TCEP 1 mM): 10.4 °C | Tm of the wt p53DBD ([1]; TCEP (1 mM)): 51.38 ± 0.38 °C | Intrinsic Clearance ([2]; HLM, calculated from half-life (Equation 2)): 5.5 mL/min/kg | clearance classification ([2]; HLM, classification after ref 32): low clearance | half-life at 10 μM ([2]; human, liver microsomes, pH 7.4, HLM 1 mg protein/mL, 10 μM, NADPH, 37 °C): 1.53 h
